Laboratory results as given in patent publication US11141403B2, “Benzimidazoles and indoles as taro inhibitors” (MERCK SHARP & DOHME CORP., priority 2015, dated 2021).

Tested on: MRSA COL (MB5393)
Assay: TarO Inhibitor/β-Lactam Synergy Assay
Format: cell-based, Staphylococcus aureus
Details: 20 hours; for IC95: Staphylococcus aureus, TarO inhibitor alone, OD600, 95% growth inhibition, read-out: MITC95 TarO inhibitor alone, Bacteria: SA_MB5393; for MITC95 TarO inhibitor + 4 μg/mL IPM; Bacteria: SA_MB5393: in combination with 4 μg/mL imipenem; for MITC95 TarO inhibitor + 4 μg/mL IPM; Bacteria: SA_MB5393 / MITC95 TarO inhibitor + 8 μg/mL DCX; Bacteria: SA_MB5393: OD600; for MITC95 TarO inhibitor + 8 μg/mL DCX; Bacteria: SA_MB5393: in combination with 8 μg/mL dicloxacillin
Description: The TarO inhibitor/β-lactam synergy assay was performed to measure the re-sensitization of methicillin-resistant Staphylococci bacteria (MB5393: MRSA COL) to β-lactam antibiotics by TarO inhibitors. MRSA COL is a hospital-acquired penicillinase-negative clinically isolated strain commonly used in Staphylococcus aureus studies and is fully resistant to the antimicrobial bioactivity of β-lactam antibiotics, including but not limited to imipenem and dicloxacillin. […] MRSA COL is fully refractory to β-lactam antibiotic effect at the current clinical breakpoint concentrations and as such MRSA COL is fully viable at these concentrations.
The β-lactam antibiotic concentration was fixed at the clinical breakpoint (imipenem 4 μg/ml or dicloxacillin 8 μg/ml) and the TarO inhibitors were titrated by 2 fold starting from the highest concentration of 200 μM with final DMSO concentration of 2% in the assay. 5×10^5 colony forming unit of MRSA COL in cation-adjusted Mueller Hinton broth (CAMHB) was then mixed and the assay plate was incubated for 20 hours at 37° C. without shaking. After 20 hours, the optical density at 600 nm (OD600) was read for all wells to determine relative growth of MRSA COL.

| SMILES | IC95 | MITC95 TarO inhibitor + 4 μg/mL IPM; Bacteria: SA_MB5393 | MITC95 TarO inhibitor + 8 μg/mL DCX; Bacteria: SA_MB5393 |
| --- | --- | --- | --- |
| CCN(C(=O)CCn1c2cc(-c3ccccc3)ccc2nc1[C@H]1CC[C@H](CC)CC1)C1CCCCC1 [Example 24, N-cyclohexyl-N-ethyl-3-(2-(trans-4-ethylcyclohexyl)-6-phenyl-1H-benzo[d]imidazol-1-yl)propanamide] | > 200 µM | 0.04 µM | 0.46 µM |
| CCN(C(=O)CCn1c2cc(-c3cnn(C)c3)ccc2nc1[C@H]1CC[C@H](CC)CC1)C1CCCCC1 [Example 25, N-cyclohexyl-N-ethyl-3-[2-(trans-4-ethylcyclohexyl)-6-(1-methyl-1H-pyrazol-4-yl)-1H-benzimidazol-1-yl]propanamide] | > 200 µM | 0.38 µM | 1.30 µM |
| CCN(C(=O)CCn1c2ccc(C3CC3)cc2nc1[C@H]1CC[C@H](CC)CC1)C1CCCCC1 [Example 26, N-cyclohexyl-3-[5-cyclopropyl-2-(trans-4-ethylcyclohexyl)-1H-benzimidazol-1-yl]-N-ethylpropanamide] | > 200 µM | 1.30 µM | 4.17 µM |
| CCN(C(=O)CCn1c2cc(CN)ccc2nc1[C@H]1CC[C@H](CC)CC1)C1CCCCC1 [Example 27, 3-[6-(aminomethyl)-2-(trans-4-ethylcyclohexyl)-1H-benzimidazol-1-yl]-N-cyclohexyl-N-ethylpropanamide] | > 200 µM | 37.50 µM | 50 µM |
| CCN(C(=O)CCn1c2cc(C[C@H]3CCOC3)ccc2nc1[C@H]1CC[C@H](CC)CC1)C1CCCCC1 [Example 28, N-cyclohexyl-N-ethyl-3-{2-(trans-4-ethylcyclohexyl)-6-[(3S)-tetrahydrofuran-3-ylmethyl]-1H-benzimidazol-1-yl}propanamide] | > 200 µM | 1.30 µM | 4.17 µM |
| CCN(C(=O)CCn1c2cccc(C[C@H]3CCOC3)c2nc1[C@H]1CC[C@H](CC)CC1)C1CCCCC1 [Example 29, N-cyclohexyl-N-ethyl-3-{2-(trans-4-ethylcyclohexyl)-4-[(3S)-tetrahydrofuran-3-ylmethyl]-1H-benzimidazol-1-yl}propanamide] | > 200 µM | 1.56 µM | 6.25 µM |
| CCN(C(=O)CCn1c2cc(CN3CCN(CC(F)(F)F)CC3)ccc2nc1[C@H]1CC[C@H](CC)CC1)C1CCCCC1 [Example 30, N-cyclohexyl-N-ethyl-3-[2-(trans-4-ethylcyclohexyl)-6-{[4-(2,2,2-trifluoroethyl)piperazin-1-yl]methyl}-1H-benzimidazol-1-yl]propanamide] | > 200 µM | 18.75 µM | 25 µM |
| CCN(C(=O)CCn1c2cc(CN3CC(F)(F)C3)ccc2nc1[C@H]1CC[C@H](CC)CC1)C1CCCCC1 [Example 31, N-cyclohexyl-3-{6-[(3,3-difluoroazetidin-1-yl)methyl]-2-(trans-4-ethylcyclohexyl)-1H-benzimidazol-1-yl}-N-ethylpropanamide] | > 200 µM | 6.25 µM | 50 µM |
| CCN(C(=O)CCn1c2cccc(N3CCOCC3)c2nc1[C@H]1CC[C@H](CC)CC1)C1CCCCC1 [Example 32, N-cyclohexyl-N-ethyl-3-[2-(trans-4-ethylcyclohexyl)-4-morpholin-4-yl-1H-benzimidazol-1-yl]propanamide] | > 200 µM | 20.83 µM | 20.83 µM |
